IC50 data for 64 compounds are collected here from patent publication US9403798B2, “Triazinone compound and T-type calcium channel inhibitor” (NISSAN CHEMICAL INDUSTRIES, LTD., priority 2012, dated 2016).

The term IC50 denotes the concentration that gives 50% inhibition.

The target of this test is T1, Human T-type calcium channel (Cav 3.2) (Homo sapiens, UniProt O95180).
T1 construct: Edward Perez-Reyes, University of Virginia, USA; host or cells: HEK293
T1 sequence (O95180 whole entry): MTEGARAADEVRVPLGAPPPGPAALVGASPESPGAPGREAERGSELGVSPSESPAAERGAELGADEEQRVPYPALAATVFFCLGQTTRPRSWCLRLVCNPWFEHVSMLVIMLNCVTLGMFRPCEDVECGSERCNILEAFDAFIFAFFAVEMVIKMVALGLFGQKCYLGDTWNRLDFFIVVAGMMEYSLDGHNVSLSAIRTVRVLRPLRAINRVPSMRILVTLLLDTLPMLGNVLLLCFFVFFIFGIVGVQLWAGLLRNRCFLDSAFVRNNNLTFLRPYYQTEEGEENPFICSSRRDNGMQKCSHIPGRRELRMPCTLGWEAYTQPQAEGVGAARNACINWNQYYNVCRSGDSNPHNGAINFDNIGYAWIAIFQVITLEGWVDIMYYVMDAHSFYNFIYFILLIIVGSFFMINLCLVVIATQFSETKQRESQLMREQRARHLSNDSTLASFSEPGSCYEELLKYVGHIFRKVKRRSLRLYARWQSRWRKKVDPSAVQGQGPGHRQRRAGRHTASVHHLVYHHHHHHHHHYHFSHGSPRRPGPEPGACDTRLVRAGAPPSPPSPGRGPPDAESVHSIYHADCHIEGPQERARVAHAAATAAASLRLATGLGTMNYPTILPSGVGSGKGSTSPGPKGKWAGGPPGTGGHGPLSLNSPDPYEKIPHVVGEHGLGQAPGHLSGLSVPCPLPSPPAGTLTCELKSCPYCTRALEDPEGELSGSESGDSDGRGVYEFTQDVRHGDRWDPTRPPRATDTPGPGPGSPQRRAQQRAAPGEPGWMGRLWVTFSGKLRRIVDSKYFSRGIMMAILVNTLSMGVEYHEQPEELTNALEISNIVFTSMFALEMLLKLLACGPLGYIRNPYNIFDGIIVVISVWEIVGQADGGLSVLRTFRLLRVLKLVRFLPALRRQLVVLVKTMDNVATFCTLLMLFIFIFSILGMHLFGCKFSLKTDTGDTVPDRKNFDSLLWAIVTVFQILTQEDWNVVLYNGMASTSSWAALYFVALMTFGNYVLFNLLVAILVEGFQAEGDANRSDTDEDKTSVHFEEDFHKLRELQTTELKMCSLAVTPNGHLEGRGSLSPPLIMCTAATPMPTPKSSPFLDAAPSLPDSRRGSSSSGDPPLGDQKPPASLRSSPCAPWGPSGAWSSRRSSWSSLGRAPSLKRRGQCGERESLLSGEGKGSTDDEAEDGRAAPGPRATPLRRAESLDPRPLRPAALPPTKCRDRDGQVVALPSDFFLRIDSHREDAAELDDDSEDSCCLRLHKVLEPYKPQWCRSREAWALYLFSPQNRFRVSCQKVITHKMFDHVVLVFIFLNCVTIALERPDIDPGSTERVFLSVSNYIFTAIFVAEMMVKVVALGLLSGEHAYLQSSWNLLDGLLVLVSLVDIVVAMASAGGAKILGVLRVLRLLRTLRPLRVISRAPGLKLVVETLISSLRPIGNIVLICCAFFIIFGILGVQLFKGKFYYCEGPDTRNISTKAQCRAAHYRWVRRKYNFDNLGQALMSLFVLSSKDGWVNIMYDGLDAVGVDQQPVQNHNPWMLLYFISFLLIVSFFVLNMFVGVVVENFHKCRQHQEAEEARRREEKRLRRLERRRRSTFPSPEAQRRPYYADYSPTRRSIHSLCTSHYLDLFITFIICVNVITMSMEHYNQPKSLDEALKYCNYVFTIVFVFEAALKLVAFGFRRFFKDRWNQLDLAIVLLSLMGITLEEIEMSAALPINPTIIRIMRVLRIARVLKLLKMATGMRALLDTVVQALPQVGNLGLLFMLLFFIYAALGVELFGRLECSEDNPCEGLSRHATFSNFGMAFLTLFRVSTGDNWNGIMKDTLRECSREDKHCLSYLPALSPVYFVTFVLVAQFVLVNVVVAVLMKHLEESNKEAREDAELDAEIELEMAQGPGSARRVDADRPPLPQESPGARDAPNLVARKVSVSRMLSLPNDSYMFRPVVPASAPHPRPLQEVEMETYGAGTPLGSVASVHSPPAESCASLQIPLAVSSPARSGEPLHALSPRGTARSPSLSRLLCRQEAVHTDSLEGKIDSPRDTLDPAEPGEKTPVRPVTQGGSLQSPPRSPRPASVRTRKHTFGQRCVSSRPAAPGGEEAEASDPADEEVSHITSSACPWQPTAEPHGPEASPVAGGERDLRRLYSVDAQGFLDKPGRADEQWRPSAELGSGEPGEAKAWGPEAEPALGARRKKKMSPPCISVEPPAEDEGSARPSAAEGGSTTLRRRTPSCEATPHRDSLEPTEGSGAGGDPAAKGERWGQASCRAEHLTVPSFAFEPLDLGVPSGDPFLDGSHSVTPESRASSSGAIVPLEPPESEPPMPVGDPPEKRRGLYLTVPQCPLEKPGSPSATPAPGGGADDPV
The experiment in a line: Calcium Influx Inhibition Assay. Particulars: Human T-type calcium channel (Cav 3.2) expressing HEK293 cells, FLIPR Calcium 4 fluorescence. The class given is cell-based. On the procedure:
1. Calcium Influx Inhibition Assay
Human T-type calcium channel (Cav 3.2) expressing HEK293 cells were obtained from Prof. Edward Perez-Reyes, University of Virginia, USA. The calcium-sensitive fluorescent dye used was FLIPR Calcium 4 Assay Kit (Molecular Devices). To a black 96-well plate with a clear bottom coated with type I collagen, the human T-type calcium channel (Cav 3.2) expressing HEK293 cells were seeded and cultured overnight, and the culture medium was removed. A solution of the calcium-sensitive fluorescent dye was added, and the plate was incubated at 37° C. in an atmosphere of 5% carbon dioxide for 30 minutes. To the plate, a diluted solution of a compound was added, and the whole was further incubated at 37° C. in an atmosphere of 5% carbon dioxide for 30 minutes. While fluorescence was continuously analyzed from the bottom with a FlexStation 3 (Molecular Devices), a calcium solution was added. […] From the rise in the fluorescence from the base line, the inhibition percentage was calculated. The logarithms of compound concentrations were plotted with respect to the inhibition activities to give an IC50 value.
With `Cc1nc(N2CC=C(c3ccc(F)cc3)[C@@H](O)C2)nc(=O)n1Cc1ccc(C(F)(F)C(F)(F)F)s1` [compound 454], the IC50 worked out at 0.0019 µM.

Consider `Cc1ccc(N2CCN(c3nc(C)n(Cc4ccc(C(F)(F)F)s4)c(=O)n3)CC2)cc1` [compound 363], for which the concentration for half-maximal inhibition (IC50) stood at 0.0087 µM.

Turning to `O=c1nc(N2CCN(c3ccc(F)cc3)CC2)ncn1Cn1ccc(C2CCCCC2)n1` [compound 27], the half-inhibitory concentration (IC50) was 0.15 µM.

With `O=c1nc(N2CCN(c3ccc(F)cc3)CC2)nc(CO)n1Cc1ccc(C(F)(F)F)s1` [458b], the half-maximal inhibitory concentration (IC50) was determined as 0.053 µM.

As for `CC(C)(C)OC(=O)N1C[C@@H](CNc2ncn(Cc3ccc(C(F)(F)F)s3)c(=O)n2)[C@H](c2ccc(F)cc2)C1` [compound 312], the IC50 turned out to be 0.55 µM.

Consider `O=c1nc(N2C=CC(c3ccc(F)cc3)=CC2)ncn1Cc1ccc(C(F)(F)F)s1` [compound 484], for which the IC50 is 0.24 µM.

Consider `Cc1cc(C2=CCN(c3ncn(Cc4ccc(C(F)(F)F)s4)c(=O)n3)C[C@@H]2O)cs1` [compound 333], for which the IC50 is 0.0018 µM.

Take `O=c1nc(N2CC=C(c3ccc(F)cc3)C(O)C2)ncn1Cn1ccc(C(F)(F)F)n1` (stereo not shown) [compound 188]: the concentration for half-maximal inhibition (IC50) is 0.042 µM.

`Cc1nc(N2CCC3(CCN(c4ccc(F)cc4)C3)CC2)nc(=O)n1Cc1ccc(C(F)(F)F)s1` [compound 370]: the IC50 was found to be 0.63 µM.

In the case of `O=c1nc(N2CC=C(c3cc4ccccc4o3)CC2)ncn1Cc1ccc(C(F)(F)F)s1` [compound 260], the IC50 was 0.14 µM.

Consider `COc1nc(C2=CCN(c3nc(C)n(Cc4ccc(OS(=O)(=O)C(F)(F)F)nc4)c(=O)n3)C[C@@H]2O)ccc1Cl` [compound 450], for which the IC50 amounted to 0.046 µM.

Turning to `CC(C)(C)c1cc(Cn2cnc(N3CCN(c4ccc(F)cc4)CC3)nc2=O)[nH]n1` [compound 15], the IC50 is 0.28 µM.

`Cc1nc(N2CC=C(c3ccc(F)cc3)[C@@H](O)C2)nc(=O)n1Cc1ccc(C(F)(F)F)o1` [compound 439]: the half-maximal inhibitory concentration (IC50) was determined as 0.0069 µM.

Regarding `COc1nc(C2=CCN(c3ncn(Cc4ccc(C(F)(F)F)s4)c(=O)n3)C[C@@H]2O)ccc1Cl` [compound 329], the IC50 stood at 0.0048 µM.

With `Cc1nc(N2CC=C(c3ccc(F)cc3)CC2)nc(=O)n1Cc1ccc(C(F)(F)F)s1` [compound 340], the IC50 came to 0.013 µM.

As for `O=c1nc(N2CCN(c3ccc(F)cc3)CC2)ncn1Cc1cccc(C(F)(F)F)c1` [compound 8], the half-maximal inhibitory concentration (IC50) was determined as 0.14 µM.

`Cc1nc(N2CCN(c3nc(C)n(Cc4ccc(C(F)(F)F)s4)c(=O)n3)CC2)ccc1F` [compound 365]: the IC50 was found to be 0.013 µM.

Turning to `O=c1nc(N2CCN(c3ccc(Cl)cc3F)CC2)ncn1Cn1ccc(C(F)(F)F)n1` [compound 60], the concentration for half-maximal inhibition (IC50) worked out at 0.42 µM.

Consider `O=c1nc(N2CC=C(c3ccc(F)cc3)CC2)ncn1Cc1ccc2c(c1)CCCO2` [compound 178], for which the 50% inhibitory concentration (IC50) stood at 0.06 µM.

For the compound `N#Cc1cc(C2=CCN(c3ncn(Cc4ccc(C(F)(F)F)s4)c(=O)n3)CC2)ccc1F` [compound 278], the half-maximal inhibitory concentration (IC50) was 0.045 µM.

Turning to `Cc1cc(N2CCN(c3nc(C)n(Cc4ccc(C(F)(F)F)s4)c(=O)n3)CC2)cs1` [compound 357], the IC50 is 0.013 µM.

As to `Cc1ccc(C2=CCN(c3nc(C)n(Cc4ccc(C(F)(F)F)s4)c(=O)n3)C[C@@H]2O)cc1F` [compound 349], the IC50 was 0.0011 µM.

As to `Cc1cc(C2=CCN(c3nc(C)n(Cc4cnc(C(F)(F)F)s4)c(=O)n3)C[C@@H]2O)cs1` [compound 493], the 50% inhibitory concentration (IC50) came to 0.0037 µM.

For the compound `O=c1nc(N2CC=C(c3ccc(F)cc3)CC2)ncn1Cc1ccc(C2CC2)s1` [compound 479], the concentration for half-maximal inhibition (IC50) was determined as 0.066 µM.

Regarding `Cc1nc(N2CCN(c3ccccc3)CC(F)(F)C2)nc(=O)n1Cc1ccc(C(F)(F)F)s1` [compound 377], the half-maximal inhibitory concentration (IC50) came to 0.41 µM.

For the compound `O=c1nc(N2CCN(c3ccc(F)cc3)CC2)ncn1Cc1ccc(C(F)(F)F)s1` [compound 25], the 50% inhibitory concentration (IC50) was 0.025 µM.

For the compound `Cc1nc(N2CCC(c3ccc(F)cc3)C(CO)(CO)C2)nc(=O)n1Cc1ccc(C(F)(F)F)s1` (stereo not shown) [compound 485], the IC50 is 0.41 µM.

Turning to `COc1nc(C2=CCN(c3ncn(Cc4ccc(C(C)(C)C)s4)c(=O)n3)C[C@@H]2O)ccc1Cl` [compound 413], the IC50 is 0.0069 µM.

Take `Cc1nc(Nc2nc(-c3ccc(F)c(F)c3)cs2)nc(=O)n1Cc1ccc(C(F)(F)F)s1` [compound 383]: the half-maximal inhibitory concentration (IC50) came to 0.089 µM.

Regarding `O=c1nc(N2CCN(c3ccc(F)cc3)CC2)ncn1Cc1ccc(C(F)(F)F)o1` [compound 21], the IC50 amounted to 0.061 µM.

For the compound `O=c1nc(NCC2CC2c2ccc(F)cc2)ncn1Cc1ccc(C(F)(F)F)s1` (single isomer, unassigned) [compound 310], the IC50 is 0.17 µM.

Consider `O=c1nc(N2CC=C(c3ccc(F)c(O)c3)CC2)ncn1Cc1ccc(C(F)(F)F)s1` [compound 304], for which the IC50 came to 0.064 µM.

Turning to `O=C1CCc2cc(C3=CCN(c4ncn(Cc5ccc(C(F)(F)F)s5)c(=O)n4)CC3)ccc21` [compound 269], the IC50 stood at 0.075 µM.

In the case of `O=c1nc(N2CC=C(c3ccc(F)c(Cl)c3)[C@@H](O)C2)ncn1Cc1cc2c(s1)CCCC2` [compound 428], the 50% inhibitory concentration (IC50) was 0.0055 µM.

On to `CCCc1nc(N2CC=C(c3ccc(F)cc3)CC2)nc(=O)n1Cc1ccc(C(F)(F)F)s1` [compound 460], for which the IC50 came out at 0.061 µM.

On to `O=c1nc(N2CCN(c3ccc(Cl)cc3)CC2)ncn1Cn1ccc(C(F)(F)F)n1` [compound 38], for which the IC50 was 0.075 µM.

Consider `CC1CC(F)(c2ccc(F)cc2)CCN1c1ncn(Cc2ccc(Cl)cc2)c(=O)n1` (stereo not shown) [compound 134], for which the IC50 stood at 0.32 µM.

Regarding `CC(=O)OC1CN(c2ncn(Cc3ccc(C(F)(F)F)s3)c(=O)n2)CC=C1c1ccc(F)cc1` (stereo not shown) [compound 476], the IC50 was 0.061 µM.

As for `CCOC(=O)c1cc(C(C)(C)C)n(Cn2cnc(N3CCN(c4ccc(F)cc4)CC3)nc2=O)n1` [compound 34], the IC50 came to 0.52 µM.

As for `Cc1cc(N2CCN(c3ncn(Cc4ccc(C(F)(F)F)o4)c(=O)n3)CC2)cs1` [compound 436], the IC50 was found to be 0.33 µM.

In the case of `O=c1nc(N2CC=C(c3ccc(F)cc3)C(O)C2)ncn1Cc1ccc(OS(=O)(=O)C(F)(F)F)nc1` (stereo not shown) [compound 189], the IC50 was 0.012 µM.

Consider `Cc1cc(Cn2cnc(N3CCN(c4ccc(F)cc4)CC3)nc2=O)sc1Br` [compound 153], for which the half-inhibitory concentration (IC50) came to 0.051 µM.

In the case of `O=c1nc(N2CC=C(c3ccc(F)cc3)CC2)ncn1Cc1ccc2oc(C(F)(F)F)cc2c1` [compound 184], the 50% inhibitory concentration (IC50) was found to be 0.043 µM.

`O=c1nc(N[C@H]2C[C@@H](c3ccc(F)cc3)C2)ncn1Cc1ccc(C(F)(F)F)s1` [compound 318]: the half-maximal inhibitory concentration (IC50) came to 0.033 µM.

On to `O=c1nc(NC2CCC(O)(c3ccc(F)cc3)C2O)ncn1Cc1ccc(Cl)cc1` (stereo not shown) [compound 465], for which the IC50 stood at 0.28 µM.

With `Cc1nc(N2CC=C(c3ccc(F)c(Cl)c3)[C@@H](O)C2)nc(=O)n1Cc1ccc(C(F)(F)F)s1` [compound 350], the 50% inhibitory concentration (IC50) was found to be 0.0011 µM.

In the case of `O=c1nc(N2CC=C(c3ccc(F)c(Cl)c3)[C@@H](O)C2)ncn1Cc1ccc(C(F)(F)F)s1` [compound 326], the IC50 came to 0.0019 µM.

Turning to `O=c1nc(N2CC=C(c3ccc(F)c(Cl)c3)[C@@H](O)C2)ncn1Cc1ccc(Cl)s1` [compound 400], the concentration for half-maximal inhibition (IC50) came out at 0.0044 µM.

With `Cc1cc(F)ccc1C1=CCN(c2nc(C)n(Cc3ccc(C(C)(C)C)s3)c(=O)n2)C[C@@H]1O` [compound 423], the half-inhibitory concentration (IC50) is 0.04 µM.

Regarding `CCCCCCOc1ccc(Cn2cnc(N3CCN(c4ccc(F)cc4)CC3)nc2=O)cc1` [compound 140], the IC50 came out at 0.055 µM.

Regarding `O=c1nc(N2CC=C(c3ccc(F)cc3)C(O)C2)ncn1Cc1ccc(Cl)cc1` (stereo not shown) [compound 90], the 50% inhibitory concentration (IC50) was 0.019 µM.

With `Cc1nc(N2CC=C(c3ccc(F)cc3)[C@@H](O)C2)nc(=O)n1Cc1ccc(C(F)(F)F)s1` [compound 342], the IC50 worked out at 0.00094 µM.

On to `Cc1nc(N2CC=C(c3ccc(F)cc3)[C@@H](O)C2)nc(=O)n1Cc1cnc(C(F)(F)F)s1` [compound 219], for which the IC50 is 0.0055 µM.

Take `Cc1nc(N2CC=C(c3ccc(F)cc3)[C@@H](N)C2)nc(=O)n1Cc1ccc(C(F)(F)F)s1` [compound 348]: the IC50 worked out at 0.0045 µM.

On to `O=c1nc(N2CCN(c3ccc(F)cc3)CC2)ncn1Cc1ccc(Cl)cc1` [compound 1], for which the half-inhibitory concentration (IC50) is 0.17 µM.

On to `O=c1nc(N2CC=C(c3ccc(F)cc3)CC2)ncn1Cc1ccc(OCC(F)(F)F)nn1` [compound 162], for which the IC50 was 0.6 µM.

On to `O=c1nc(N2CC=C(c3ccsc3)CC2)ncn1Cc1ccc(C(F)(F)F)s1` [compound 230], for which the IC50 worked out at 0.022 µM.

Consider `Cc1ccc(C2=CCN(c3nc(C)n(Cc4ccc(Br)s4)c(=O)n3)C[C@@H]2O)cc1F` [compound 392], for which the half-maximal inhibitory concentration (IC50) was 0.0013 µM.

`O=c1nc(NC2CCC(c3ccc(F)cc3)C2)ncn1Cc1ccc(Cl)cc1` (stereo not shown) [compound 85]: the IC50 came to 0.057 µM.

For `O=c1nc(N[C@@H]2CCN(c3ccc(F)cc3)C2)ncn1Cc1ccc(Cl)cc1` [compound 92], the half-inhibitory concentration (IC50) is 0.047 µM.

Take `O=c1nc(N2CCC(c3ccc(F)cc3)CC2)ncn1Cc1ccc(Cl)cc1` [compound 114]: the concentration for half-maximal inhibition (IC50) was found to be 0.13 µM.

As for `O=c1nc(N2CC=C(c3ccc(F)cc3)C(O)C2)ncn1Cc1ccc(C2CCCO2)s1` (stereo not shown) [compound 196], the half-maximal inhibitory concentration (IC50) came to 0.02 µM.

For the compound `O=c1nc(N2CC=C(c3ccc(F)cc3)C(F)C2)ncn1Cc1ccc(Cl)cc1` (stereo not shown) [compound 107], the IC50 was found to be 0.076 µM.

For the compound `O=c1nc(N2CC=C(c3ccc(F)cc3)[C@@H](O)C2)ncn1Cc1ccc(OS(=O)(=O)C(F)(F)F)cc1` [compound 211], the IC50 is 0.002 µM.
